Experiments:
Hela = experiment: Cell proliferation inhibition assay (MTT); assay type: cell-based; details: Homo sapiens, 72 hours, read-out: Proliferation inhibitory activity IC50
Method: (§1) The cells were seeded in 96-well plates with 200 μL of cell suspension per well and incubated overnight in a cell culture medium with a cell concentration of 1 2×10^4 cells/mL. The next day, the supernatant was discarded (the suspension cell was centrifuged before it) and the cells were treated with gradient concentrations of the test compound, respectively. […] After 72 hours, add 20 μL of MTT reagent at a concentration of 5 mg/mL per well. After incubation for 2-4 h, the supernatant was discarded and 150 μL of DMSO was added to each well. […] Relative cell proliferation inhibition rate=([MUT]-[MUT])×100%/[MUT]. The experiment was repeated at least 3 times. Experimental data were expressed as mean, data statistics using t test, P<0.05 for the difference was statistically significant.

Mer = Mer (Homo sapiens (Human), UniProt Q12866); experiment: Kinase inhibition assay (KinaseProfiler, 33P-ATP); assay type: biochemical; details: Mer(h), read-out: The percentage of the remaining active protein
SMMC7721 = experiment: Cell proliferation inhibition assay (MTT); assay type: cell-based; details: Homo sapiens, SMMC-7721, 72 hours, read-out: Proliferation inhibitory activity IC50
Method: as §1

MDA-MB-415 = experiment: Cell proliferation inhibition assay (MTT); assay type: cell-based; details: Homo sapiens, 72 hours, read-out: Proliferation inhibitory activity IC50
Method: as §1

ALK1(h) = ALK1(h) (Homo sapiens (Human), UniProt P37023); experiment: Kinase inhibition assay (KinaseProfiler, 33P-ATP); assay type: biochemical; details: read-out: The percentage of the remaining active protein
Arg(m) = Arg(m) (Mus musculus (Mouse), UniProt Q4JIM5); experiment: Kinase inhibition assay (KinaseProfiler, 33P-ATP); assay type: biochemical; details: read-out: The percentage of the remaining active protein
CaMKK2(h) = CaMKK2(h) (Homo sapiens (Human), UniProt Q96RR4); experiment: Kinase inhibition assay (KinaseProfiler, 33P-ATP); assay type: biochemical; details: read-out: The percentage of the remaining active protein
CDK5/p35(h) = CDK5/p35(h) (Homo sapiens (Human), UniProt Q00535); experiment: Kinase inhibition assay (KinaseProfiler, 33P-ATP); assay type: biochemical; details: read-out: The percentage of the remaining active protein
CK1(y) = experiment: Kinase inhibition assay (KinaseProfiler, 33P-ATP); assay type: biochemical, yeast; details: 10 μM
DCAMKL2(h) = DCAMKL2(h) (Homo sapiens (Human), UniProt Q8N568); experiment: Kinase inhibition assay (KinaseProfiler, 33P-ATP); assay type: biochemical; details: read-out: The percentage of the remaining active protein
Sequence of DCAMKL2(h) (Q8N568 whole entry): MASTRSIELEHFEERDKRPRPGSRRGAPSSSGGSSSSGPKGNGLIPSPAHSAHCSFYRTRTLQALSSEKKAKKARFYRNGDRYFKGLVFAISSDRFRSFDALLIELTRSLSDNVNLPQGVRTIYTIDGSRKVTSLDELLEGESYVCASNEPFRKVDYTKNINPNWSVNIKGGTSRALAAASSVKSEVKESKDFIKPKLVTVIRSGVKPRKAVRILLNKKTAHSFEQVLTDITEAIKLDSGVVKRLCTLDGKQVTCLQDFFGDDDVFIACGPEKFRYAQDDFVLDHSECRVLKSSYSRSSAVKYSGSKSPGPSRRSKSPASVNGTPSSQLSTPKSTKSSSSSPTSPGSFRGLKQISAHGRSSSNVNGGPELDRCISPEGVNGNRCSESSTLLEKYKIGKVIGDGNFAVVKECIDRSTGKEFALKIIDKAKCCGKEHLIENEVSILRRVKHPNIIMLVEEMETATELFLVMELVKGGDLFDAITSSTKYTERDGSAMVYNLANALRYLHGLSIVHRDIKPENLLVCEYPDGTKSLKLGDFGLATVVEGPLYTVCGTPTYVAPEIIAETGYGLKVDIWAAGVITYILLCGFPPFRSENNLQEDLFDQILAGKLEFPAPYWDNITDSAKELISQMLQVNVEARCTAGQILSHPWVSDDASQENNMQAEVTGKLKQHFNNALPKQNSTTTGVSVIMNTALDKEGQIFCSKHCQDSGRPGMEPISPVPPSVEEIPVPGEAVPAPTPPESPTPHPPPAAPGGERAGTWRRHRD

DYRK1A(h) = DYRK1A(h) (Homo sapiens (Human), UniProt Q13627); experiment: Kinase inhibition assay (KinaseProfiler, 33P-ATP); assay type: biochemical; details: read-out: The percentage of the remaining active protein
EGFR(L858R)(h) = EGFR(L858R)(h) (Homo sapiens (Human), UniProt P00533, L858R); experiment: Kinase inhibition assay (KinaseProfiler, 33P-ATP); assay type: biochemical; details: read-out: The percentage of the remaining active protein
MLK1(h) = MLK1(h) (Homo sapiens (Human), UniProt P80192); experiment: Kinase inhibition assay (KinaseProfiler, 33P-ATP); assay type: biochemical; details: read-out: The percentage of the remaining active protein
NEK3(h) = NEK3(h) (Homo sapiens (Human), UniProt P51956); experiment: Kinase inhibition assay (KinaseProfiler, 33P-ATP); assay type: biochemical; details: read-out: The percentage of the remaining active protein
NEK9(h) = NEK9(h) (Homo sapiens (Human), UniProt Q8TD19); experiment: Kinase inhibition assay (KinaseProfiler, 33P-ATP); assay type: biochemical; details: read-out: The percentage of the remaining active protein
NIM1(h) = NIM1(h) (Homo sapiens (Human), UniProt Q8IY84); experiment: Kinase inhibition assay (KinaseProfiler, 33P-ATP); assay type: biochemical; details: read-out: The percentage of the remaining active protein
PAK5(h) = PAK5(h) (Homo sapiens (Human), UniProt Q9P286); experiment: Kinase inhibition assay (KinaseProfiler, 33P-ATP); assay type: biochemical; details: read-out: The percentage of the remaining active protein
PAK6(h) = PAK6(h) (Homo sapiens (Human), UniProt Q9NQU5); experiment: Kinase inhibition assay (KinaseProfiler, 33P-ATP); assay type: biochemical; details: read-out: The percentage of the remaining active protein
PKCδ(h) = PKCδ(h) (Homo sapiens (Human), UniProt Q05655); experiment: Kinase inhibition assay (KinaseProfiler, 33P-ATP); assay type: biochemical; details: read-out: The percentage of the remaining active protein
PKCθ(h) = PKCθ(h) (Homo sapiens (Human), UniProt Q04759); experiment: Kinase inhibition assay (KinaseProfiler, 33P-ATP); assay type: biochemical; details: read-out: The percentage of the remaining active protein
Rsk3(h) = Rsk3(h) (Homo sapiens (Human), UniProt Q15349); experiment: Kinase inhibition assay (KinaseProfiler, 33P-ATP); assay type: biochemical; details: read-out: The percentage of the remaining active protein
Sequence of Rsk3(h) (Q15349 whole entry): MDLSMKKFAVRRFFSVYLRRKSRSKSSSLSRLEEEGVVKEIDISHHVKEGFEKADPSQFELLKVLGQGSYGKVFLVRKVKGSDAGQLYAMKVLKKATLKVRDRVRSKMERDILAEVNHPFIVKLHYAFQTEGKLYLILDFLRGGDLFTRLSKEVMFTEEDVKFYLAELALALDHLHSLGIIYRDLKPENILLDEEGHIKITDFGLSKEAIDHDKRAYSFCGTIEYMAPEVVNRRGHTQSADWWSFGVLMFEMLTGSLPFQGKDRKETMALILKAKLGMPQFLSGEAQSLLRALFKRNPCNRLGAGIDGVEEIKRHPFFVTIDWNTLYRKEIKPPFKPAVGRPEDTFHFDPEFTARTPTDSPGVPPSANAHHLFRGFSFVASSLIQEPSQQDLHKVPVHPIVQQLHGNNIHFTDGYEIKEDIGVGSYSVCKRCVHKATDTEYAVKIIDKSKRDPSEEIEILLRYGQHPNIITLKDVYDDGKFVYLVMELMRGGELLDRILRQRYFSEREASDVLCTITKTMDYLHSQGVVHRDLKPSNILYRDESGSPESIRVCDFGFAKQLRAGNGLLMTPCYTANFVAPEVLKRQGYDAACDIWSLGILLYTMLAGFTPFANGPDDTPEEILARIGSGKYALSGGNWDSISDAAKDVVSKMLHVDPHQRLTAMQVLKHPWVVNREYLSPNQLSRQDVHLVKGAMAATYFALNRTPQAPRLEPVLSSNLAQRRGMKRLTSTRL

SAPK3(h) = SAPK3(h) (Homo sapiens (Human), UniProt P53778); experiment: Kinase inhibition assay (KinaseProfiler, 33P-ATP); assay type: biochemical; details: read-out: The percentage of the remaining active protein
SGK2(h) = SGK2(h) (Homo sapiens (Human), UniProt Q9HBY8); experiment: Kinase inhibition assay (KinaseProfiler, 33P-ATP); assay type: biochemical; details: read-out: The percentage of the remaining active protein
Sequence of SGK2(h) (Q9HBY8 whole entry): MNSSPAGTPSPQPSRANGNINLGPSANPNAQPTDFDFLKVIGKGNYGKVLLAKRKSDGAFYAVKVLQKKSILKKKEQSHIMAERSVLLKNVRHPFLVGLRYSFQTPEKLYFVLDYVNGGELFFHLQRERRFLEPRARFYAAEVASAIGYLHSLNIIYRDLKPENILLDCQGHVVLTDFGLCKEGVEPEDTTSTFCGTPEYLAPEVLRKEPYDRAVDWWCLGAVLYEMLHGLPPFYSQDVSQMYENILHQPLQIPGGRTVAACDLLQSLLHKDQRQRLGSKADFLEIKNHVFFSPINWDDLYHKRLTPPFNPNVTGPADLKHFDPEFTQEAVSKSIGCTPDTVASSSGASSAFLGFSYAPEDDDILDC

TSSK1(h) = TSSK1(h) (Homo sapiens (Human), UniProt Q9BXA7); experiment: Kinase inhibition assay (KinaseProfiler, 33P-ATP); assay type: biochemical; details: read-out: The percentage of the remaining active protein
Sequence of TSSK1(h) (Q9BXA7 whole entry): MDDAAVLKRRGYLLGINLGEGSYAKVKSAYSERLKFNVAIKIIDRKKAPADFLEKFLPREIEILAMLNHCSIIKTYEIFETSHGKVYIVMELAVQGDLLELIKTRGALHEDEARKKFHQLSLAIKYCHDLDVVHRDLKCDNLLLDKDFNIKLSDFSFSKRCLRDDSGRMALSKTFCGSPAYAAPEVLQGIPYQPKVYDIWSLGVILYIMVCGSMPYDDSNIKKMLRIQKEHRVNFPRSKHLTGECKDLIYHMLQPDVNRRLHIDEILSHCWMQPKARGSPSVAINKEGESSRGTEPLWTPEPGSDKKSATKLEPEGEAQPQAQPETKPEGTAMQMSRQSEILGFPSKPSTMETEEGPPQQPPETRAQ

WNK2(h) = WNK2(h) (Homo sapiens (Human), UniProt Q9Y3S1); experiment: Kinase inhibition assay (KinaseProfiler, 33P-ATP); assay type: biochemical; details: read-out: The percentage of the remaining active protein
[1] = target: PI3 Kinase (p110a(E545K)/p85a)(m) (Mus musculus (Mouse), UniProt P42337, E545K); experiment: Kinase inhibition assay (KinaseProfiler, 33P-ATP); assay type: biochemical; details: read-out: The percentage of the remaining active protein
[2] = target: PI3 Kinase (p110a(H1047R)/p85a)(h) (Homo sapiens (Human), UniProt P42336, H1047R); experiment: Kinase inhibition assay (KinaseProfiler, 33P-ATP); assay type: biochemical; details: read-out: The percentage of the remaining active protein
Sequence of PI3 Kinase (p110a(H1047R)/p85a)(h) (P42336 whole entry H1047R): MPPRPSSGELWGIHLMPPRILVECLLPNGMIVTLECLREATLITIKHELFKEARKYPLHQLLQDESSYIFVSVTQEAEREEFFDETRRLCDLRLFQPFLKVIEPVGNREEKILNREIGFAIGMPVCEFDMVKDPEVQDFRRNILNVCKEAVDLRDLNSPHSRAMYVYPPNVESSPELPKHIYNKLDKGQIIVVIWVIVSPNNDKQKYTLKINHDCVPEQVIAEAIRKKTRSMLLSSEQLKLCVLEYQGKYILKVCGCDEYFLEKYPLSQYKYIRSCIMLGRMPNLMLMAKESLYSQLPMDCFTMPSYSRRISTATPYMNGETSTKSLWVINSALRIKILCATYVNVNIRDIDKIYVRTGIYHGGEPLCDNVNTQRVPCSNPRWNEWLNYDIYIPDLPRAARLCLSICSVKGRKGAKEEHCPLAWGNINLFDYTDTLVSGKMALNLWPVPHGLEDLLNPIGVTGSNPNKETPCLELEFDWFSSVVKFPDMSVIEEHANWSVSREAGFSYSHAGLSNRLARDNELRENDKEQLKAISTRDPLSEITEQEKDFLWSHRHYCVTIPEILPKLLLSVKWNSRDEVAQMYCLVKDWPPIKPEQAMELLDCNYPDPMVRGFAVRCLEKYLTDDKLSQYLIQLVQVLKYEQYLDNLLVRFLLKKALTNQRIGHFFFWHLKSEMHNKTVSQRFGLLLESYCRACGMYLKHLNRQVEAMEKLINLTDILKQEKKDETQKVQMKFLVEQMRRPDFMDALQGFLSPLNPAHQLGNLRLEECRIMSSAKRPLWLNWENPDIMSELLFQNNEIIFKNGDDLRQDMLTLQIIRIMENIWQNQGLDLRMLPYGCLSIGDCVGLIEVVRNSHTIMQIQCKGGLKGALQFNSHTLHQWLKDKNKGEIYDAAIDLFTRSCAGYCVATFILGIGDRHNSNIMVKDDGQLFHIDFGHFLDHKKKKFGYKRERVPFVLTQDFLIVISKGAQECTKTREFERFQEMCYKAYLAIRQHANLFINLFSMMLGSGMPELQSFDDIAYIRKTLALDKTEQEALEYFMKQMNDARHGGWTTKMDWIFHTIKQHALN
Sequence of PI3 Kinase (p110a(H1047R)/p85a)(h) (P27986 whole entry partner): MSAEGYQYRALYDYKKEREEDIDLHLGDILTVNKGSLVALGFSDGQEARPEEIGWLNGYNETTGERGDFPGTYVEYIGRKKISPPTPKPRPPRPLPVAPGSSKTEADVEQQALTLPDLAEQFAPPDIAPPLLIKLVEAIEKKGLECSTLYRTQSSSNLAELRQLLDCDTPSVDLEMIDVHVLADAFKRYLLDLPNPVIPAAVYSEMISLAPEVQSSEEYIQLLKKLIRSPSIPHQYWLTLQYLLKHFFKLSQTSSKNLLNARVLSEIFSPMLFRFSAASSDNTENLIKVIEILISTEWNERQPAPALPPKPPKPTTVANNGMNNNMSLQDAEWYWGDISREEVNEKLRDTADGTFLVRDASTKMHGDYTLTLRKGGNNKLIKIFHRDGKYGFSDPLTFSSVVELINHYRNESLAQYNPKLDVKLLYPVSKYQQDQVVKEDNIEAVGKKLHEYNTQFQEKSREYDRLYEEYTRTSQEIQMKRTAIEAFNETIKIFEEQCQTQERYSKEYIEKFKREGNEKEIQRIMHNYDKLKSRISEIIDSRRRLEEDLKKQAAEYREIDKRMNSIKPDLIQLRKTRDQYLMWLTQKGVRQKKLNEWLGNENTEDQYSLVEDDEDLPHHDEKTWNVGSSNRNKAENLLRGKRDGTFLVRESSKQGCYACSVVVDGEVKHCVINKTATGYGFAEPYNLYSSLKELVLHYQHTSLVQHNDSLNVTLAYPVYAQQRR

Sequence of Mer (Q12866 21-999): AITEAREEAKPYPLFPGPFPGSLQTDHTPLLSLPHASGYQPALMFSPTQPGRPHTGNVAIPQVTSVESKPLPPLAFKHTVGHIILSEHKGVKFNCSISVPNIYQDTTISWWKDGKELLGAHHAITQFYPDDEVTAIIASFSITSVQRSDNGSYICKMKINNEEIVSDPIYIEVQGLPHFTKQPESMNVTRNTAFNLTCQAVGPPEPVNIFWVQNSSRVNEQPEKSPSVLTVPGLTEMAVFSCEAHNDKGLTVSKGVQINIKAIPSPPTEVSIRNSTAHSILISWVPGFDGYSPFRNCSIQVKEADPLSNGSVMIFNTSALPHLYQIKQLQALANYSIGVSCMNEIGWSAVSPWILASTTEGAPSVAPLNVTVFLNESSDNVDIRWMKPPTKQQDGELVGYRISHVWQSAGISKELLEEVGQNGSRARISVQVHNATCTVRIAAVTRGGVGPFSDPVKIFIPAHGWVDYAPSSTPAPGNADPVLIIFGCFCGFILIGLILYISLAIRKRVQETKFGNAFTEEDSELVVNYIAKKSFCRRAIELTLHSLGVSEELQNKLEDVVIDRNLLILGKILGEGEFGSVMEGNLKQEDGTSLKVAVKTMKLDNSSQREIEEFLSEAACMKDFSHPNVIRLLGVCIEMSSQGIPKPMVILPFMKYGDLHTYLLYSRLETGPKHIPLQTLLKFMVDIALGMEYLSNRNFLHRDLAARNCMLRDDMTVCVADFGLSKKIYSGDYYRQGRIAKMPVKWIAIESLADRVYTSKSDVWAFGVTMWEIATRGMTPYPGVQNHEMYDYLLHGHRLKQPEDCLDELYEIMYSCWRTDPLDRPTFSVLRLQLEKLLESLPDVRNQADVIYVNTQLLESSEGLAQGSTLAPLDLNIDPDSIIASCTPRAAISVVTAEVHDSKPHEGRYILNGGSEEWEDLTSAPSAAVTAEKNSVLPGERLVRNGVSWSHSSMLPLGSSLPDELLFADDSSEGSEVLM

Cc1ccc(NC(=O)c2cccc(C(F)(F)F)c2)cc1C#Cc1nn(C2CCN(C)CC2)c2ncnc(N)c12 [Compound 31]
IC50 (Hela): 7.23 µM

Cc1ccc(NC(=O)c2ccc(C)c(C(F)(F)F)c2)cc1C#Cc1nn([C@H]2CC[C@H](O)CC2)c2ncnc(N)c12 [Compound 93]
remaining activity at 10 µM (Mer): 0%
IC50 (SMMC7721): > 10 µM
IC50 (MDA-MB-415): ~10 µM
remaining activity at 10 µM (ALK1(h)): 71%
remaining activity at 10 µM (Arg(m)): -1%
remaining activity at 10 µM (CaMKK2(h)): 55%
remaining activity at 10 µM (CDK5/p35(h)): 127%
The percentage of the remaining active protein (CK1(y)): 86%
remaining activity at 10 µM (DCAMKL2(h)): 102%
remaining activity at 10 µM (DYRK1A(h)): 95%
remaining activity at 10 µM (EGFR(L858R)(h)): 21%
remaining activity at 10 µM (MLK1(h)): 7%
remaining activity at 10 µM (NEK3(h)): 102%
remaining activity at 10 µM (NEK9(h)): 59%
remaining activity at 10 µM (NIM1(h)): 131%
remaining activity at 10 µM (PAK5(h)): 89%
remaining activity at 10 µM (PAK6(h)): 92%
remaining activity at 10 µM (PKCδ(h)): 96%
remaining activity at 10 µM (PKCθ(h)): 103%
remaining activity at 10 µM (Rsk3(h)): 38%
remaining activity at 10 µM (SAPK3(h)): 68%
remaining activity at 10 µM (SGK2(h)): 97%
remaining activity at 10 µM (TSSK1(h)): 100%
remaining activity at 10 µM (WNK2(h)): 105%
remaining activity at 10 µM [1]: 87%
remaining activity at 10 µM [2]: 89%

Reference: patent US10266537B2, “3-acetylenyl-pyrazole-pyrimidine derivative, and preparation method therefor and uses thereof” (Si Chuan University, priority 2015, dated 2019)
